Reference: patent publication US20130203730A1, “BENZOTHIAZOLES AS GHRELIN RECEPTOR MODULATORS” (AstraZeneca AB, priority 2007, published 2013)
pEC50, pIC50: −log10 of the molar value.

How the values were obtained:
human GHS receptor [1] = target: T1, human GHS receptor (Homo sapiens, UniProt Q92847); assay: h bind IC50 (binding assay, hBindingIC50)
T1 construct: expressed in transfected cells

human GHS receptor [2] = target: T1, human GHS receptor; assay: Ghrelin IP1 agonist assay (IP1 HTRF) in HEK293s cells expressing human GHS receptor; assay type: cell-based
Experimental: In HEK293s cells stably expressing human GHS receptor (In-house), agonist activity was assessed by measuring intracellular myo-Inositol 1 phosphate (IP1) using the IP1 HTRF assay kit (Cisbio International).
Cells were harvested using accutase (Sigma), spun down at 1000 rpm for 5 minutes and resuspended in stimulation buffer (as above) containing 0.02% fatty acid free BSA at a density of 1.43E6 cells/ml.

T1 sequence (Q92847 whole entry): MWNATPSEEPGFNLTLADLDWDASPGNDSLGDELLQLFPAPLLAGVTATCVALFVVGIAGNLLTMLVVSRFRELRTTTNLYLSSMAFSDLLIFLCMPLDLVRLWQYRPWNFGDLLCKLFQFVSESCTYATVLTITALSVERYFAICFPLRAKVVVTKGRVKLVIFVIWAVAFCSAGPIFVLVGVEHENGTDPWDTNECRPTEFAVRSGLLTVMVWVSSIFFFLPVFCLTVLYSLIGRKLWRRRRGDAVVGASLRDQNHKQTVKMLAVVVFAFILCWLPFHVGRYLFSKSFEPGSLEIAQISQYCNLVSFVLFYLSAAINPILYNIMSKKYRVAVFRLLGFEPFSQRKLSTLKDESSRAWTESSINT

CCS(=O)(=O)c1ccccc1C(=O)NC(=O)Nc1nc2ccc(S(C)(=O)=O)cc2s1 [Example 135, 2-Ethylsulfonyl-N-[(6-methylsulfonylbenzothiazol-2-yl)carbamoyl]benzamide]
pIC50 (human GHS receptor [1]): 5.65 | Emax (human GHS receptor [2]; HEK293S, 2 h, agonist effect as % maximal effect of GHRP-6 (5 μM), read-out: h IP1 ag %): 18.2% | pEC50 (human GHS receptor [2]; HEK293s cells stably expressing human GHS receptor, read-out: h IP1 ag EC50): 5.43
